This note sets out measurements from paper PMC3903666 (Analytical biochemistry, 2012).

Where a name gives a salt, the structure may show the parent alone.

The term Kd denotes the equilibrium constant for the complex coming apart. In general, IC50 refers to the concentration needed to halve the response being measured.

In experiment [1] the target is T1, Af SidA (Aspergillus fumigatus, UniProt E9QYP0). Put plainly: Fluorescence polarization displacement assay, Af SidA. The class given is binding. Background: In fluorescence polarisation assays a small probe gives low polarisation when free and higher when bound to something large.
T1 sequence (E9QYP0 whole entry): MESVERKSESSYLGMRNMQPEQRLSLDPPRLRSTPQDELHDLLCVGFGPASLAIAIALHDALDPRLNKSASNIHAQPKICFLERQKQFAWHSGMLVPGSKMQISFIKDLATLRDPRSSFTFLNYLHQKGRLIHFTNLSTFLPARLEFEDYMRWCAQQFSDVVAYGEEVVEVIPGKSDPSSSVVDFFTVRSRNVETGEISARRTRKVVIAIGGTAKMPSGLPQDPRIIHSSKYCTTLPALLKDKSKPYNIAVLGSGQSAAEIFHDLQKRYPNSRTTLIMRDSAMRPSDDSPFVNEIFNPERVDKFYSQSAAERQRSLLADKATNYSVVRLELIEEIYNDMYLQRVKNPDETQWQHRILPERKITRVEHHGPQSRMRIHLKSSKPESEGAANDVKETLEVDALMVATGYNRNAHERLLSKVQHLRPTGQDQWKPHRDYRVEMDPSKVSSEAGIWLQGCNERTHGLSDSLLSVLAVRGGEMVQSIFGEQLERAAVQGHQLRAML
For experiment [2], the target named is KMO (kynurenine 3-monooxygenase) (Pseudomonas fluorescens, UniProt Q84HF5). The experiment in a line: Fluorescence polarization binding assay, KMO.
Chain of KMO (kynurenine 3-monooxygenase) (Q84HF5 whole entry): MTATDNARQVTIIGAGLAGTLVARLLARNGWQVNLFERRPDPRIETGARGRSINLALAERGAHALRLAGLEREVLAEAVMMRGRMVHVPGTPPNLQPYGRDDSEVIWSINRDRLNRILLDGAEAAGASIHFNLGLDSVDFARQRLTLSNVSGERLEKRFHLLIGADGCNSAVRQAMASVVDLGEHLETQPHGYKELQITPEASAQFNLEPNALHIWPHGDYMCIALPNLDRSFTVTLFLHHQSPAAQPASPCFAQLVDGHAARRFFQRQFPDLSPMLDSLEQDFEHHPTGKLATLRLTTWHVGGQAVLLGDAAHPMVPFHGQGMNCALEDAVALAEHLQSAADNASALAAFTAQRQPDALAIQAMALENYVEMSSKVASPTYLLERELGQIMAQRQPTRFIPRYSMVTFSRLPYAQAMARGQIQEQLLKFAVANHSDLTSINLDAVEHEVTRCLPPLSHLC
Experiment [3] has as its target T1, Af SidA. Put plainly: Fluorescence polarization binding assay, Af SidA.
In experiment [4] the target is T1, Af SidA. Put plainly: Fluorescence polarization displacement assay in high throughput screening. The class given is binding. To be noted: 10 μM compound, 2 μM Af SidA, 30 nM chromophore 4, 2% DMSO.
Experiment [5] has as its target T1, Af SidA. Put plainly: Ornithine hydroxylation activity assay and inhibition of Af SidA. The class given is biochemical.

As for `COc1ccc2cc([C@H](C)C(=O)O)ccc2c1` [naproxen], the “binding to Af SidA” value in experiment [1] (negative hit, Figure 9S) is “did not bind”.

`CN(C)c1ccc2c(c1)Oc1cc(N(C)C)ccc1C21OC(=O)c2cc(C(=O)NCCCCCC(=O)NCCCCCCOP(=O)(O)OP(=O)(O)OCC3OC(n4cnc5c(N)ncnc54)C(O)C3O)ccc21` (centres unmarked) [Chromophore 4]: the Kd in experiment [2] stood at 0.6 ± 0.05 µM; in experiment [3], 2.1 ± 0.2 µM.

As for `NCCCC[C@H](N)C(=O)O` [Lysine, lysine], the Kd in experiment [1] is 11000 ± 1000 µM.

Consider `CN(C)c1ccc2c(c1)Oc1cc(N(C)C)ccc1C21OC(=O)c2ccc(C(=O)NCCCCCC(=O)NCCCCCCOP(=O)(O)OP(=O)(O)OCC3OC(n4cnc5c(N)ncnc54)C(O)C3O)cc21` (centres unmarked) [Chromophore 3], for which the Kd is 10 ± 2 µM in experiment [2] and 9 ± 5 µM in experiment [3].

In the case of `COc1ccc2cc3[n+](cc2c1OC)CCc1cc2c(cc1-3)OCO2` [berberine], the “decrease in anisotropy (specificity of binding to Af SidA)” value in experiment [1] (addition of up to 1 mM compound, Figure 9S) is listed as “did not produce a decrease in anisotropy similar to sanguinarine”.

As for `C[n+]1cc2c3c(ccc2c2ccc4cc5c(cc4c21)OCO5)OCO3` [Sanguinarine, sanguinarine sulfate], in experiment [4], the “decrease of the anisotropy value in the screen” value is given as 20%. In experiment [5], this compound came in with an IC50 of 500 ± 90 µM. Moreover, the “inhibition of Af SidA activity observed” value in experiment [5] (in the presence of NADPH and ornithine, inhibitor up to 1000 μM) came out at 100%.

On to `NCCC[C@H](N)C(=O)O` [Ornithine, ornithine], for which the dissociation constant Kd in experiment [1] was 4000 ± 1000 µM.
